Measured values from US20230293526A1, “METHOD FOR TREATING CANCER WITH A REVERSE TRANSCRIPTASE INHIBITOR” (PrimeFour Therapeutics, Inc., priority 2020, published 2023).

What was measured:
Assay in all cases: Cell proliferation CellTiterGlo Ex.2
Assay type in all cases: cell-based
SW948 = details: Homo sapiens; SW948 (Colon), 72 h
Experimental: (§1) A dose response relationship on cell proliferation was assessed for Compound 13 on 140 tumor cell lines. Briefly, compound treatment of cells started one day after seeding with a final DMSO concentration of 0.100, and was performed by nanodrop-dispensing using a Tecan Dispenser. 0.10% DMSO (solvent) and Staurosporine (10 μM) served as high control (10000 viability) and low control (000 viability), respectively. Compound 13 was tested at 10, 3, 1, 0.3, 0.1, 0.03, 0.01, and 0.003 μM.
(§2) Cells were cultured in the appropriate media. For the assays, cells were seeded in white cell culture-treated flat and clear bottom multiwell plates and incubated at 37° C. overnight before compound was added. After incubation for 72 h at 37° C. at 5% or 10% CO2 dependent on the medium, cell plates were equilibrated to room temperature for one hour, CellTiterGlo reagent (Promega) was added and luminescence was measured approximately an hour later using a luminometer.
(§3) Raw data were converted into percent cell viability relative to the high and low control, which were set to 10000 and 000, respectively.

BxPC-3 = details: Homo sapiens; BxPC-3 (Pancreas), 72 h
Experimental: as §1, §2, §3

ZR-75-1 = details: Homo sapiens; ZR-75-1 (Breast), 72 h
Experimental: as §1, §2, §3

EPLC-272H = details: Homo sapiens; EPLC-272H (Lung), 72 h
Experimental: as §1, §2, §3

Colo 205 = details: Homo sapiens; Colo 205 (Colon), 72 h
Experimental: as §1, §2, §3

Kato III = details: Homo sapiens; Kato III (Stomach), 72 h
Experimental: as §1, §2, §3

NCI-N87 = details: Homo sapiens; NCI-N87 (Stomach), 72 h
Experimental: as §1, §2, §3

MOLT-4 = details: Homo sapiens; MOLT-4 (Blood), 72 h
Experimental: as §1, §2, §3

MDA-MB-468 = details: Homo sapiens; MDA-MB-468 (Breast), 72 h
Experimental: as §1, §2, §3

NCI-H441 = details: Homo sapiens; NCI-H441 (Lung), 72 h
Experimental: as §1, §2, §3

NCI-H2009 = details: Homo sapiens; NCI-H2009 (Lung), 72 h
Experimental: as §1, §2, §3

M07e = details: M-07e; M07e (Blood), 72 h
Experimental: as §1, §2, §3

A549 = details: Homo sapiens; A549 (Lung), 72 h
Experimental: as §1, §2, §3

HCC827 = details: Homo sapiens; HCC827 (Lung), 72 h
Experimental: as §1, §2, §3

DLD-1 = details: Homo sapiens; DLD-1 (Colon), 72 h
Experimental: as §1, §2, §3

MOLM-13 = details: Homo sapiens; MOLM-13 (Blood), 72 h
Experimental: as §1, §2, §3

NCI-H2286 = details: Homo sapiens; NCI-H2286 (Lung), 72 h
Experimental: as §1, §2, §3

RPMI 8226 = details: Homo sapiens; RPMI 8226 (Blood), 72 h
Experimental: as §1, §2, §3

H1299 = details: Homo sapiens, NCI-H1299; H1299 (Lung), 72 h
Experimental: as §1, §2, §3

MV4-11 = details: Homo sapiens; MV4-11 (Blood), 72 h
Experimental: as §1, §2, §3

Detroit562 = details: Homo sapiens, Detroit 562; Detroit562 (Head/Neck), 72 h
Experimental: as §1, §2, §3

SK-N-SH = details: Homo sapiens; SK-N-SH (Brain), 72 h
Experimental: as §1, §2, §3

U251MG = details: Homo sapiens, U-251; U251MG (Brain), 72 h
Experimental: as §1, §2, §3

Hs 746T = details: Homo sapiens, Hs746T; Hs 746T (Stomach), 72 h
Experimental: as §1, §2, §3

SNU-1 = details: Homo sapiens, SNU1; SNU-1 (Stomach), 72 h
Experimental: as §1, §2, §3

DU-145 = details: Homo sapiens; DU-145 (Prostate), 72 h
Experimental: as §1, §2, §3

KG-1 a = details: Homo sapiens; KG-1 a (Blood), 72 h
Experimental: as §1, §2, §3

SNU840 = details: SNU-840; SNU840 (Ovary), 72 h
Experimental: as §1, §2, §3

KARPAS 299 = details: Homo sapiens; KARPAS 299 (Blood), 72 h
Experimental: as §1, §2, §3

RERF-LC-Ad2 = RERF-LC-Ad2 (Lung), 72 h
Experimental: as §1, §2, §3

PC-9 = details: Homo sapiens; PC-9 (Lung), 72 h
Experimental: as §1, §2, §3

HCC202 = HCC202 (Breast), 72 h
Experimental: as §1, §2, §3

HL-60 = details: Homo sapiens; HL-60 (Blood), 72 h
Experimental: as §1, §2, §3

C#C[C@]1(CO)O[C@@H](n2cnc3c(=O)[nH]c(N)nc32)C[C@@H]1O [compound 13]
IC50 (SW948): 5.02 µM
IC50 (BxPC-3): 5.43 µM
IC50 (ZR-75-1): > 10 µM
IC50 (EPLC-272H): 6.63 µM
IC50 (Colo 205): 1.5 µM
IC50 (Kato III): 4.86 µM
IC50 (NCI-N87): 3.6 µM
IC50 (MOLT-4): 0.51 µM
IC50 (MDA-MB-468): > 10 µM
IC50 (NCI-H441): 3.64 µM
IC50 (NCI-H2009): 1.23 µM
IC50 (M07e): 4.07 µM
IC50 (A549): > 10 µM
IC50 (HCC827): 4.47 µM
IC50 (DLD-1): > 10 µM
IC50 (MOLM-13): 0.46 µM
IC50 (NCI-H2286): 5.69 µM
IC50 (RPMI 8226): > 10 µM
IC50 (H1299): 7.68 µM
IC50 (MV4-11): 0.21 µM
IC50 (Detroit562): 4.79 µM
IC50 (SK-N-SH): 6.47 µM
IC50 (U251MG): > 10 µM
IC50 (Hs 746T): 5.39 µM
IC50 (SNU-1): 2.89 µM
IC50 (DU-145): 5.73 µM
IC50 (KG-1 a): 5.86 µM
IC50 (SNU840): 4.23 µM
IC50 (KARPAS 299): 4.07 µM
IC50 (RERF-LC-Ad2): 2.58 µM
IC50 (PC-9): > 10 µM
IC50 (HCC202): > 10 µM
IC50 (HL-60): 1.13 µM
